From patent US12655116B2, “Substituted isophthalic acid diamides” (Bayer Aktiengesellschaft, priority 2020, dated 2026)

Columns and labels:
DIGSA [1] = experiment: Post-emergence herbicidal action against DIGSA; format: in vivo, Digitaria sanguinalis
Outline: (§1)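 Sandy loam, greenhouse; treatment 2–3 weeks after sowing, one-leaf stage. Aqueous suspension or emulsion from WP/EC sprayed on foliage (600–800 l/ha, 0.2% wetting agent). Readout: visual % action, ~3 weeks.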

VIOTR [2] = experiment: Pre-emergence herbicidal action against VIOTR; format: in vivo, Viola tricolor
Outline: (§2)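 Seeds sown in sandy loam, soil-covered; compound sprayed on soil surface pre-emergence. Application: WP/EC, 600–800 l/ha, 0.2% wetting agent. Readout: visual % damage at 3 weeks.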

AMARE [3] = experiment: Post-emergence herbicidal action against AMARE; format: in vivo, Amaranthus retroflexus; settings: 20 g/ha, visual assessment about 3 weeks after treatment, 100% = plants have died, 0% = like control plants
Outline: as §1

AVEFA = experiment: Pre-emergence herbicidal action against AVEFA; format: in vivo, Avena fatua; settings: 80 g/ha, pre-emergence
Outline: as §2

ABUTH [4] = experiment: Pre-emergence herbicidal action against ABUTH; format: in vivo, Abutilon theophrasti
Outline: as §2

DIGSA [5] = experiment: Pre-emergence herbicidal action against DIGSA; format: in vivo, Digitaria sanguinalis
Outline: as §2

VERPE [6] = experiment: Pre-emergence herbicidal action against VERPE; format: in vivo, Veronica persica
Outline: as §2

MATIN [7] = experiment: Pre-emergence herbicidal action against MATIN; format: in vivo, Matricaria inodora
Outline: as §2

ECHCG [8] = experiment: Pre-emergence herbicidal action against ECHCG; format: in vivo, Echinochloa crus-galli; settings: 80 g/ha
Outline: as §2

ALOMY [9] = experiment: Pre-emergence herbicidal action against ALOMY; format: in vivo, Alopecurus myosuroides; settings: pre-emergence
Outline: as §2

ALOMY [10] = experiment: Post-emergence herbicidal action against ALOMY; format: in vivo, Alopecurus myosuroides; settings: dosage 20 g/ha, visual assessment about 3 weeks after treatment vs untreated controls
Outline: as §1

ECHCG [11] = experiment: Post-emergence herbicidal action against ECHCG; format: in vivo, Echinochloa crus-galli
Outline: as §1

VERPE [12] = experiment: Post-emergence herbicidal action against VERPE; format: in vivo, Veronica persica
Outline: as §1

PHBPU [13] = experiment: Pre-emergence herbicidal action against PHBPU; format: in vivo, Pharbitis purpurea; settings: dosage 80 g/ha
Outline: as §2

AMARE [14] = experiment: Pre-emergence herbicidal action against AMARE; format: in vivo, Amaranthus retroflexus
Outline: as §2

SETVI [15] = experiment: Pre-emergence herbicidal action against SETVI; format: in vivo, Setaria viridis
Outline: as §2

VIOTR [16] = experiment: Post-emergence herbicidal action against VIOTR; format: in vivo, Viola tricolor
Outline: as §1

ABUTH [17] = experiment: Post-emergence herbicidal action against ABUTH; format: in vivo, Abutilon theophrasti; settings: visual assessment about 3 weeks after treatment vs untreated controls
Outline: as §1

SETVI [18] = experiment: Post-emergence herbicidal action against SETVI; format: in vivo, Setaria viridis; settings: dosage 20 g/ha
Outline: as §1

MATIN [19] = experiment: Post-emergence herbicidal action against MATIN; format: in vivo, Matricaria inodora
Outline: as §1

PHBPU [20] = experiment: Post-emergence herbicidal action against PHBPU; format: in vivo, Pharbitis purpurea
Outline: as §1

[21] = 80 g/ha, scored visually after 3 weeks vs untreated controls (100% = plants have died, 0% = like control plants)
[22] = dosage 20 g/ha, scored visually after 3 weeks vs untreated controls, 100% = plants have died, 0% = like control plants
[23] = 20 g/ha, scored visually after 3 weeks vs untreated controls, 100% = plants have died, 0% = like control plants

Cn1nnnc1NC(=O)c1ccc(C(F)F)c(C(=O)NCC(F)F)c1Br [Example 1-230]
100%: Pre-emergence action against VIOTR in % (VIOTR [2]; dosage 20 g/ha) | Pre-emergence action against VIOTR in % (VIOTR [2]; dosage 80 g/ha) | Post-emergence action at 20 g/ha against AMARE in % (AMARE [3]) | Pre-emergence action against ABUTH (herbicidal activity) (ABUTH [4]; [21]) | Pre-emergence action against DIGSA in % (DIGSA [5]; dosage 80 g/ha) | Pre-emergence action against VERPE in % (VERPE [6]; dosage 80 g/ha) | Pre-emergence action against MATIN in % (MATIN [7]; dosage 80 g/ha) | Pre-emergence action against AMARE in % (AMARE [14]; [23]) | Pre-emergence action against AMARE in % (AMARE [14]; [21]) | Pre-emergence action against SETVI in % (SETVI [15]; dosage 80 g/ha)
80%: Post-emergence action against ECHCG in % (ECHCG [11]; dosage 5 g/ha) | Post-emergence action against ECHCG in % (ECHCG [11]; dosage 20 g/ha) | Post-emergence action against VERPE in % (VERPE [12]; 20 g/ha)
90%: Post-emergence action against DIGSA (DIGSA [1]; 20 g/ha) | Pre-emergence action against AVEFA in % (AVEFA) | Pre-emergence action against ABUTH (herbicidal activity in percent) (ABUTH [4]; [22]) | Pre-emergence action against DIGSA in % (DIGSA [5]; dosage 20 g/ha) | Pre-emergence action against MATIN in % (MATIN [7]; dosage 20 g/ha) | Pre-emergence action against ECHCG in % (ECHCG [8]) | Pre-emergence action against ALOMY (herbicidal activity) (ALOMY [9]; [21]) | Post-emergence action against ALOMY in % (ALOMY [10]) | Pre-emergence action against PHBPU in % (PHBPU [13]) | Pre-emergence action against SETVI in % (SETVI [15]; dosage 20 g/ha)

CCn1nnnc1NC(=O)c1ccc(C(F)F)c(C(=O)NC2CC2)c1Br [Example 2-227]
100%: pest or weed control at 20 g/ha (DIGSA [1]; Digitaria sanguinalis, 504 h, 20 g/ha) | pest or weed control at 20 g/ha (VIOTR [2]; Viola tricolor, 504 h, dosage 20 g/ha) | pest or weed control at 80 g/ha (VIOTR [2]; Viola tricolor, 504 h, dosage 80 g/ha) | pest or weed control at 20 g/ha (AMARE [3]; Amaranthus retroflexus, 504 h) | pest or weed control at 80 g/ha (ABUTH [4]; Abutilon theophrasti, 504 h, 80 g/ha, scored visually after 3 weeks vs untreated controls (100% = plants have died, 0% = like control plants)) | pest or weed control at 20 g/ha (ABUTH [4]; Abutilon theophrasti, 504 h, dosage 20 g/ha, scored visually after 3 weeks vs untreated controls, 100% = plants have died, 0% = like control plants, read-out: Pre-emergence action against ABUTH (herbicidal activity in percent)) | pest or weed control at 80 g/ha (DIGSA [5]; Digitaria sanguinalis, 504 h, dosage 80 g/ha) | pest or weed control at 80 g/ha (VERPE [6]; Veronica persica, 504 h, dosage 80 g/ha) | pest or weed control at 20 g/ha (MATIN [7]; Tripleurospermum inodorum, 504 h, dosage 20 g/ha) | pest or weed control at 80 g/ha (MATIN [7]; Tripleurospermum inodorum, 504 h, dosage 80 g/ha) | pest or weed control at 80 g/ha (ECHCG [8]; Echinochloa crus-galli, 504 h) | pest or weed control at 80 g/ha (ALOMY [9]; Alopecurus myosuroides, 504 h, 80 g/ha, scored visually after 3 weeks vs untreated controls (100% = plants have died, 0% = like control plants)) | pest or weed control at 20 g/ha (VIOTR [16]; Viola tricolor, 504 h, 20 g/ha) | pest or weed control at 5 g/ha (ABUTH [17]; Abutilon theophrasti, 504 h, dosage 5 g/ha) | pest or weed control at 20 g/ha (ABUTH [17]; Abutilon theophrasti, 504 h, dosage 20 g/ha) | pest or weed control at 20 g/ha (AMARE [14]; Amaranthus retroflexus, 504 h, 20 g/ha, scored visually after 3 weeks vs untreated controls, 100% = plants have died, 0% = like control plants) | pest or weed control at 80 g/ha (AMARE [14]; Amaranthus retroflexus, 504 h, 80 g/ha, scored visually after 3 weeks vs untreated controls, 100% = plants have died, 0% = like control plants) | pest or weed control at 20 g/ha (SETVI [15]; Setaria viridis, 504 h, dosage 20 g/ha) | pest or weed control at 80 g/ha (SETVI [15]; Setaria viridis, 504 h, dosage 80 g/ha)
80%: pest or weed control at 20 g/ha (ALOMY [9]; Alopecurus myosuroides, 504 h, 20 g/ha, scored visually after 3 weeks, 100% = plants have died, 0% = like control plants) | pest or weed control at 20 g/ha (ECHCG [11]; Echinochloa crus-galli, 504 h, dosage 20 g/ha) | pest or weed control at 20 g/ha (VERPE [12]; Veronica persica, 504 h, 20 g/ha)
90%: pest or weed control at 80 g/ha (AVEFA; Avena fatua, 504 h) | pest or weed control at 20 g/ha (DIGSA [5]; Digitaria sanguinalis, 504 h, dosage 20 g/ha) | pest or weed control at 5 g/ha (VIOTR [16]; Viola tricolor, 504 h, 5 g/ha) | pest or weed control at 80 g/ha (PHBPU [13]; Ipomoea purpurea, 504 h)

CCn1nnnc1NC(=O)c1ccc(C(F)(F)F)c(C(=O)NC)c1C1CC1 [Example 2-286]
100%: Pre-emergence action against VIOTR in % (VIOTR [2]; dosage 80 g/ha) | Post-emergence action at 20 g/ha against AMARE in % (AMARE [3]) | Pre-emergence action against ABUTH (herbicidal activity) (ABUTH [4]; [21]) | Pre-emergence action against ABUTH (herbicidal activity in percent) (ABUTH [4]; [22]) | Pre-emergence action against DIGSA in % (DIGSA [5]; dosage 20 g/ha) | Pre-emergence action against DIGSA in % (DIGSA [5]; dosage 80 g/ha) | Pre-emergence action against VERPE in % (VERPE [6]; dosage 80 g/ha) | Pre-emergence action against MATIN in % (MATIN [7]; dosage 20 g/ha) | Pre-emergence action against MATIN in % (MATIN [7]; dosage 80 g/ha) | Post-emergence action against ECHCG in % (ECHCG [11]; dosage 20 g/ha) | Pre-emergence action against AMARE in % (AMARE [14]; [23]) | Pre-emergence action against AMARE in % (AMARE [14]; [21]) | Pre-emergence action against SETVI in % (SETVI [15]; dosage 80 g/ha)
90%: Post-emergence action against DIGSA in % (DIGSA [1]; 5 g/ha) | Post-emergence action against DIGSA (DIGSA [1]; 20 g/ha) | Pre-emergence action against VIOTR in % (VIOTR [2]; dosage 20 g/ha) | Post-emergence action against MATIN in % (MATIN [19]; dosage 5 g/ha) | Post-emergence action against MATIN in % (MATIN [19]; dosage 20 g/ha) | Pre-emergence action against ECHCG in % (ECHCG [8]) | Post-emergence action against ABUTH in % (ABUTH [17]; dosage 5 g/ha) | Post-emergence action against ABUTH in % (ABUTH [17]; dosage 20 g/ha) | Post-emergence action against PHBPU in % (PHBPU [20]; dosage 5 g/ha) | Post-emergence action against PHBPU in % (PHBPU [20]; dosage 20 g/ha) | Pre-emergence action against PHBPU in % (PHBPU [13])
80%: Pre-emergence action against VERPE in % (VERPE [6]; dosage 20 g/ha) | Post-emergence action against SETVI in % (SETVI [18]) | Pre-emergence action against ALOMY (herbicidal activity) (ALOMY [9]; [21]) | Post-emergence action against VIOTR in % (VIOTR [16]; 20 g/ha) | Post-emergence action against VERPE in % (VERPE [12]; 5 g/ha) | Post-emergence action against VERPE in % (VERPE [12]; 20 g/ha) | Pre-emergence action against SETVI in % (SETVI [15]; dosage 20 g/ha)
